Results reported in patent US20250197424A1, “QUINOLINE COMPOUND AND USE THEREOF” (SHANGHAI PHARMACEUTICALS HOLDING CO., LTD., priority 2022, published 2025).
Structures can show the parent of a compound that is named as a salt.

biological target: GTP-KRAS-G12D:SOS1 (Homo sapiens (Human), UniProt P01116, G12D); assay: GTP-KRAS-G12D:SOS1 binding inhibition
Protocol: The IC50 of the compounds was fitted using a nonlinear regression equation with GraphPad Prism 8. The results are presented in Table 2: • Negative control: DMSO • Positive control: 100 μM BI-2852
The following nonlinear fitting formula was used to obtain the IC50 (half-maximal inhibitory concentration) of the compounds:
[formula] • X: logarithm of the compound concentration • Y: 665/615 Ratio

Sequence of GTP-KRAS-G12D:SOS1 (P01116-2 other isoform, or with tags, fused parts or gaps G12D): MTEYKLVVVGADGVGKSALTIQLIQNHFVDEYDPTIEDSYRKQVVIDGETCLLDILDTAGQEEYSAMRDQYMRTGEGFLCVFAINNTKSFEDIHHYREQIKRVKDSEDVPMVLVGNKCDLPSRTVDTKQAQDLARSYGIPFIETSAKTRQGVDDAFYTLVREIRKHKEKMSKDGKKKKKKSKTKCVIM

Row | Compound | IC50
1 | CCc1cccc2cc(O)cc(-c3c(F)c4c5c(nc(OC[C@]67C[C@@H](F)CN6C[C@@H](CN6CCOCC6)C7)nc5c3F)N3CC5CCC(N5)C3CO4)c12 (single isomer, unassigned) [Compound 28b, 4-((2S or 2R,5aS,6S,9R)-1,3-difluoro-13-(((2R,6R,7aS)-2-fluoro-6-(morpholinomethyl)tetrahydro-1H-pyrrolizin-7a(5H)-yl)methoxy)-5a,6,7,8,9,10-hexahydro-5H-6,9-epiminoazepino[2′,1′:3,4][1,4]oxazepino[5,6,7-de]quinazolin-2-yl)-5-ethylnaphthalen-2-ol trihydrochloride] | 0.0152 µM
2 | Cc1cc(N)nc(-c2c(F)c3c4c(nc(OC[C@@]56CCCN5C[C@H](F)C6)nc4c2F)N2C[C@@H]4CCC(N4)[C@@H]2CCO3)c1C(F)(F)F (single isomer, unassigned) [Compound 26a, 6-((2S or 2R,6aS,7S,10R)-1,3-Difluoro-14-(((2R,7aS)-2-fluorotetrahydro-1H-pyrrolizin-7a(5H)-yl)methoxy)-5,6,6a,7,8,9,10,11-octahydro-7,10-epiminoazepino[1′,2′: 5,6][1,5]oxazocino[4,3,2-de]quinazolin-2-yl)-4-methyl-5-(trifluoromethyl)pyridin-2-amine] | 0.247 µM
3 | Cc1cc(N)nc(-c2c(F)c3c4c(nc(OC[C@@]56CCCN5C[C@H](F)C6)nc4c2F)N2CC4CCC(N4)C2CO3)c1C(F)(F)F (single isomer, unassigned) [10b′, (R or S)-6-((5aS,6S,9R)-1,3-difluoro-13-(((2R,7aS)-2-fluorotetrahydro-1H-pyrrolizin-7a(5H)-yl)methoxy)-5a,6,7,8,9,10-hexahydro-5H-6,9-epiminoazepino[2′,1′:3,4][1,4]oxazepino[5,6,7-de]quinazolin-2-yl)-4-methyl-5-(trifluoromethyl)pyridin-2-amine] | 0.0117 µM
4 | Oc1cc(-c2c(F)c3c4c(nc(OC[C@@]56CCCN5C[C@H](F)C6)nc4c2F)N2CC4CCC(N4)C2CO3)c2c(C3CC3)cccc2c1 (single isomer, unassigned) [Compound 11b, 5-cyclopropyl-4-((2S or 2R,5aS,6S,9R)-1,3-difluoro-13-(((2R,7aS)-2-fluorotetrahydro-1H-pyrrolizin-7a(5H)-yl)methoxy)-5a,6,7,8,9,10-hexahydro-5H-6,9-epiminoazepino[2′,1′:3,4][1,4]oxazepino[5,6,7-de]quinazolin-2-yl) naphthalen-2-ol dihydrochloride] | 0.0185 µM
5 | CCc1cccc2cc(O)cc(-c3c(F)c4c5c(nc(OC[C@]67C[C@@H](F)CN6C[C@@H](CN6CCCCC6)C7)nc5c3F)N3CC5CCC(N5)C3CO4)c12 (single isomer, unassigned) [Compound 27b, 4-((2S or 2R,5aS,6S,9R)-1,3-difluoro-13-(((2R,6R,7aS)-2-fluoro-6-(piperidin-1-ylmethyl)tetrahydro-1H-pyrrolizin-7a(5H)-yl)methoxy)-5a,6,7,8,9,10-hexahydro-5H-6,9-epiminoazepino[2′,1′:3,4][1,4]oxazepino[5,6,7-de]quinazolin-2-yl)-5-ethylnaphthalen-2-ol trihydrochloride] | 0.0172 µM
6 | CCc1cccc2cc(O)cc(-c3c(F)c4c5c(nc(OC[C@]67C[C@@H](F)CN6C[C@@H](CN6CCN(C)CC6)C7)nc5c3F)N3CC5CCC(N5)C3CO4)c12 (single isomer, unassigned) [Compound 29b, 4-((2R or 2S, 5aS,6S,9R)-1,3-difluoro-13-(((2R,6R,7aS)-2-fluoro-6-((4-methylpiperazin-1-yl)methyl)tetrahydro-1H-pyrrolizin-7a(5H)-yl)methoxy)-5a,6,7,9,10-hexahydro-5H-6,9-epiminoazepino[2′,1′:3,4][1,4]oxazepino[5,6,7-de]quinazolin-2-yl)-5-ethylnaphthalen-2-ol tetrahydrochloride] | 0.0157 µM
